Source: patent US20240208992A1, “MACROCYCLES AS CFTR MODULATORS” (Idorsia Pharmaceuticals Ltd, priority 2021, published 2024)

Target: human F508del-CFTR (Homo sapiens, UniProt P13569, DEL508-508)
Assay: F508del-CFTR cell surface expression (corrector activity), DiscoveRx ß-galactosidase complementation chemiluminescence assay in recombinant U2OS cell line;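 also: U2OS cells co-expressing ProLink-tagged F508del-CFTR and a membrane-anchored enzyme acceptor, where more surface CFTR restores β-galactosidase activity measured by chemiluminescence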
Settings: for EC50: EC50, F508del-CFTR cell surface expression; for Emax: U2OS
[1] = U2OS cell line, 16h compound incubation, geomean values
[2] = in relation to the Emax of the corrector lumacaftor (=100%), U2OS cell line, 16h compound incubation, arithmetic mean values
[3] = U2OS cells, 16h compound incubation, geomean values
[4] = in relation to Emax of corrector lumacaftor (=100%), arithmetic mean values
[5] = U2OS cells, 16h compound incubation, geomean of several measurements
[6] = in relation to the Emax of the corrector lumacaftor (=100%), U2OS cells, 16h compound incubation, arithmetic mean

Sequence of human F508del-CFTR (P13569 with tags, fused parts or gaps DEL508-508): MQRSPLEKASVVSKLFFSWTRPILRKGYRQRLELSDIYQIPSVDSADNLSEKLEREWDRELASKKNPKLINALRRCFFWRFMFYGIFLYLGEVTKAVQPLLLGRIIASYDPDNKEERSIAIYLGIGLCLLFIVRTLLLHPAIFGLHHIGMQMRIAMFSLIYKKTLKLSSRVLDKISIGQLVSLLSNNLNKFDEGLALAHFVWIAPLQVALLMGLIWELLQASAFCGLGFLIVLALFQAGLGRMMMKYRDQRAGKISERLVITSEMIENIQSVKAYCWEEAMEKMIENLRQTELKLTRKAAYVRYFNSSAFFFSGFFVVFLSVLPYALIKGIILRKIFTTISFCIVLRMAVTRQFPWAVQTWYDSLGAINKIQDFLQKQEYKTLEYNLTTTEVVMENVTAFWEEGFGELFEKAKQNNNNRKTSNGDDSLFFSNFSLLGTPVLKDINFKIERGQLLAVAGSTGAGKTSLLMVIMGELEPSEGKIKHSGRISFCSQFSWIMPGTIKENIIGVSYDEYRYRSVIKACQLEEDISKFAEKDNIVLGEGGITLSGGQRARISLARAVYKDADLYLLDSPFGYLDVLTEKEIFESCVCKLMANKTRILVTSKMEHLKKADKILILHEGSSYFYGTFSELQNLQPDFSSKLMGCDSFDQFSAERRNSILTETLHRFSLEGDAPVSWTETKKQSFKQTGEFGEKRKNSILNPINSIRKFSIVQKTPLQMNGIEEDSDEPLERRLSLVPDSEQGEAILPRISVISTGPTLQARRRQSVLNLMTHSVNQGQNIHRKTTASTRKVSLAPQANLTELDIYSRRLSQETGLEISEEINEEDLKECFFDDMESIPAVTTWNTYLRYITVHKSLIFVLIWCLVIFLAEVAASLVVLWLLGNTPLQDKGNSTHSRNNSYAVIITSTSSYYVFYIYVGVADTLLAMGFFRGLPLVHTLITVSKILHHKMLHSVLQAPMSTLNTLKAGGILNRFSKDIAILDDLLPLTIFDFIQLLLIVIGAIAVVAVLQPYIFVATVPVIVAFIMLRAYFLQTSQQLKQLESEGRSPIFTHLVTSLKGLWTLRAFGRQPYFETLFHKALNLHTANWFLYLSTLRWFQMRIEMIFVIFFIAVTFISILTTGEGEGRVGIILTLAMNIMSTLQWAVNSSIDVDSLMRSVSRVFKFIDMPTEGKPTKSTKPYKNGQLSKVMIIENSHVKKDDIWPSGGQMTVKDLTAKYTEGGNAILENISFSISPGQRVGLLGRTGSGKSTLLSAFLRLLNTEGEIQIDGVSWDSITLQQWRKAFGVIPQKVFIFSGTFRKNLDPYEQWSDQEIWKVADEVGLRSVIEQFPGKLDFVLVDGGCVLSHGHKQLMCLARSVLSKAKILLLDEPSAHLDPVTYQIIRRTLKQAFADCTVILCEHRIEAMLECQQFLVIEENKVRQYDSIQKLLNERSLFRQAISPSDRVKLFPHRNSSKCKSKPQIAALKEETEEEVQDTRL

Row | SMILES | EC50 [1] | Emax [2] | EC50 [5] | Emax [6] | other results
1 | CC(C)C[C@H]1C(=O)N2CCCC[C@@H]2C(=O)N[C@H](Cc2ccccc2)COc2cnc3ccccc3c2C(=O)N[C@H](C(=O)NCCc2c(F)cc(Br)cc2F)CC(=O)N1C [Example 99, (9S,13S,19aR,22R)-22-benzyl-N-(4-bromo-2,6-difluorophenethyl)-13-isobutyl-12-methyl-7,11,14,20-tetraoxo-7,8,9,10,11,12,13,14,17,18,19,19a,20,21,22,23-hexadecahydro-16H-pyrido[2′,11:6,7][1]oxa[4,7,10,14]tetraazacycloheptadecino[17,16-c]quinoline-9-carboxamide] | 205 nM | 254% | – | – | –
2 | CC(C)C[C@H]1C(=O)N2CC[C@@H](c3ccccc3)C[C@H]2C(=O)N[C@H](Cc2ccccc2)COc2cnc3ccccc3c2C(=O)N[C@H](C(=O)NCCc2cc(C3CC3)no2)CC(=O)N1C [Example 675, (9S,13S,19aS,22R)-22-benzyl-N-(2-(3-cyclopropylisoxazol-5-yl)ethyl)-13-isobutyl-12-methyl-7,11,14,20-tetraoxo-18-phenyl-7,8,9,10,11,12,13,14,17,18,19,19a,20,21,22,23-hexadecahydro-16H-pyrido[2′,1′:6,7][1]oxa[4,7,10,14]tetraazacycloheptadecino[17,16-c]quinoline-9-carboxamide] | – | – | – | – | EC50 [3]: 194 nM; Emax [4]: 159%
3 | COc1noc(CCNC(=O)[C@@H]2CC(=O)N(C)[C@@H](CC(C)C)C(=O)N(C)[C@H](Cc3nc(C(F)(F)F)no3)C(=O)N[C@H](Cc3ccccc3)COc3cc(C)c4ncccc4c3C(=O)N2)n1 [Example 927, (3S,7S,10R,13R)-13-benzyl-7-isobutyl-N-(2-(3-methoxy-1,2,4-oxadiazol-5-yl)ethyl)-6,9,17-trimethyl-1,5,8,11-tetraoxo-10-((3-(trifluoromethyl)-1,2,4-oxadiazol-5-yl)methyl)-1,2,3,4,5,6,7,8,9,10,11,12,13,14-tetradecahydro-[1]oxa[4,7,10,14]tetraazacycloheptadecino[16,17-f]quinoline-3-carboxamide] | – | – | 27 nM | 492% | –
4 | CC(C)C[C@H]1C(=O)N(C)C2(CC2)C(=O)N[C@H](Cc2ccccc2)COc2cnc3ccc(F)cc3c2C(=O)N[C@H](C(=O)NCCc2c(F)cccc2F)CC(=O)N1C [Example 132, (3′S,7′S,13′R)-13′-benzyl-N-(2,6-difluorophenethyl)-20′-fluoro-7′-isobutyl-6′,9′-dimethyl-1′,5′,8′,11′-tetraoxo-2′,3′,4′,5′,6′,7′,8′,9′,11′,12′,13′,14′-dodecahydro-1′H-spiro[cyclopropane-1,10′-[1]oxa[4,7,10,14]tetraazacycloheptadecino[17,16-c]quinoline]-3′-carboxamide] | 110 nM | 313% | – | – | –
5 | Cc1cc(CCNC(=O)[C@@H]2CC(=O)N(C)[C@@H](CC(C)C)C(=O)N3CCN(C(=O)OCC(Cl)(Cl)Cl)C[C@@H]3C(=O)N[C@H](Cc3ccccc3)COc3cnc4ccccc4c3C(=O)N2)on1 [Example 458, 2,2,2-trichloroethyl (9S,13S,19aR,22R)-22-benzyl-13-isobutyl-12-methyl-9-((2-(3-methylisoxazol-5-yl)ethyl)carbamoyl)-7,11,14,20-tetraoxo-7,8,9,10,11,12,13,14,16,17,19,19a,20,21,22,23-hexadecahydro-18H-pyrazino[2′,1′:6,7][1]oxa[4,7,10,14]tetraazacycloheptadecino[17,16-c]quinoline-18-carboxylate] | – | – | – | – | EC50 [3]: 209 nM; Emax [4]: 238%
6 | COc1cccc(CCNC(=O)[C@@H]2CC(=O)N(C)[C@@H](CC(C)C)C(=O)N(C)CC(=O)N[C@H](Cc3ccccc3)COc3cnc4ccccc4c3C(=O)N2)c1 [Example 319, (3S,7S,13R)-13-benzyl-7-isobutyl-N-(3-methoxyphenethyl)-6,9-dimethyl-1,5,8,11-tetraoxo-1,2,3,4,5,6,7,8,9,10,11,12,13,14-tetradecahydro-[1]oxa[4,7,10,14]tetraazacycloheptadecino[17,16-c]quinoline-3-carboxamide] | 574 nM | 296% | – | – | –
7 | COc1nc(C)cc2c1C(=O)N[C@H](C(=O)NCCc1noc(C3CC3)n1)CC(=O)N(C)[C@@H](CC(C)C)C(=O)N(C)[C@H](Cc1nc(C(F)(F)F)no1)C(=O)N[C@H](Cc1ccccc1)CO2 [Example 820, (3R,6R,9S,13S)-3-benzyl-N-(2-(5-cyclopropyl-1,2,4-oxadiazol-3-yl)ethyl)-9-isobutyl-16-methoxy-7,10,18-trimethyl-5,8,11,15-tetraoxo-6-((3-(trifluoromethyl)-1,2,4-oxadiazol-5-yl)methyl)-2,3,4,5,6,7,8,9,10,11,12,13,14,15-tetradecahydropyrido[3,4-p][1]oxa[4,7,10,14]tetraazacycloheptadecine-13-carboxamide] | – | – | 49 nM | 461% | –
8 | COc1nc(C)cc2c1C(=O)N[C@H](C(=O)NCCc1cc(C)no1)CC(=O)N(C)[C@@H](CC(C)C)C(=O)N(C)[C@H](CC(C)(C)C)C(=O)N[C@H](Cc1ccccc1)CO2 [Example 876, (3R,6R,9S,13S)-3-benzyl-9-isobutyl-16-methoxy-7,10,18-trimethyl-N-(2-(3-methylisoxazol-5-yl)ethyl)-6-neopentyl-5,8,11,15-tetraoxo-2,3,4,5,6,7,8,9,10,11,12,13,14,15-tetradecahydropyrido[3,4-p][1]oxa[4,7,10,14]tetraazacycloheptadecine-13-carboxamide] | – | – | 113 nM | 317% | –
9 | CC(C)C[C@H]1C(=O)N(C)[C@H](CC(F)F)C(=O)N[C@H](Cc2ccccc2)COc2ccc3ncc(F)cc3c2C(=O)N[C@H](C(=O)NCCc2noc(C3CC3)n2)CC(=O)N1C [Example 801, (3S,7S,10R,13R)-13-benzyl-N-(2-(5-cyclopropyl-1,2,4-oxadiazol-3-yl)ethyl)-10-(2,2-difluoroethyl)-20-fluoro-7-isobutyl-6,9-dimethyl-1,5,8,11-tetraoxo-1,2,3,4,5,6,7,8,9,10,11,12,13,14-tetradecahydro-[1]oxa[4,7,10,14]tetraazacycloheptadecino[16,17-f]quinoline-3-carboxamide] | – | – | 149 nM | 330% | –
10 | CC(C)C[C@H]1C(=O)N2CCOC[C@@H]2C(=O)N[C@H](Cc2ccccc2)COc2ccc3ccccc3c2C(=O)N[C@H](C(=O)NCCc2nc(-c3ccccc3)no2)CC(=O)N1C [Example 69, (9S,13S,19aR,22R)-22-benzyl-13-isobutyl-12-methyl-7,11,14,20-tetraoxo-N-(2-(3-phenyl-1,2,4-oxadiazol-5-yl)ethyl)-7,8,9,10,11,12,13,14,16,17,19,19a,20,21,22,23-hexadecahydro-[1,4]oxazino[3′,4′:6,7][1]oxa[4,7,10,14]tetraazacycloheptadecino[17,16-c]quinoline-9-carboxamide] | 454 nM | 262% | – | – | –
11 | Cc1cc(CCNC(=O)[C@@H]2CC(=O)N(C)[C@@H](CC(C)C)C(=O)N(C)[C@H](Cc3nc(C(F)(F)F)no3)C(=O)N[C@H](Cc3ccccc3)COc3ccc4ncc(F)cc4c3C(=O)N2)on1 [Example 965, (3S,7S,10R,13R)-13-benzyl-20-fluoro-7-isobutyl-6,9-dimethyl-N-(2-(3-methylisoxazol-5-yl)ethyl)-1,5,8,11-tetraoxo-10-((3-(trifluoromethyl)-1,2,4-oxadiazol-5-yl)methyl)-1,2,3,4,5,6,7,8,9,10,11,12,13,14-tetradecahydro-[1]oxa[4,7,10,14]tetraazacycloheptadecino[16,17-f]quinoline-3-carboxamide] | – | – | 32 nM | 453% | –
12 | COc1cccc(CCNC(=O)[C@@H]2CC(=O)N(C)[C@@H](CC(C)C)C(=O)NC3(CC3)C(=O)N[C@H](Cc3ccccc3)COc3ccc4ccccc4c3C(=O)N2)c1 [Example 386, (3′S,7′S,13′R)-13′-benzyl-7′-isobutyl-N-(3-methoxyphenethyl)-6′-methyl-1′,5′,8′,11′-tetraoxo-2′,3′,4′,5′,6′,7′,8′,9′,11′,12′,13′,14′-dodecahydro-1′H-spiro[cyclopropane-1,10′-naphtho[1,2-p][1]oxa[4,7,10,14]tetraazacycloheptadecine]-3′-carboxamide] | 393 nM | 149% | – | – | –
13 | CC(C)C[C@H]1C(=O)N2CCCC[C@@H]2C(=O)N[C@H](Cc2ccccc2)COc2ccc3ncn(C)c3c2C(=O)N[C@H](C(=O)NCCc2noc3ccccc23)CC(=O)N1C [Example 30, (8S,12S,18aR,21R)-N-(2-(benzo[d]isoxazol-3-yl)ethyl)-21-benzyl-12-isobutyl-5,11-dimethyl-6,10,13,19-tetraoxo-6,7,8,9,10,11,12,13,16,17,18,18a,19,20,21,22-hexadecahydro-5H,15H-imidazo[4′,5′:5,6]benzo[1,2-p]pyrido[2,1-f][1]oxa[4,7,10,14]tetraazacycloheptadecine-8-carboxamide] | 275 nM | 113% | – | – | –
14 | COc1cccc(CCNC(=O)[C@@H]2CC(=O)N(C)[C@@H](CC(C)C)C(=O)N(C)[C@H](C)C(=O)N[C@H](Cc3ccccc3)COc3ccc4nccn4c3C(=O)N2)c1 [Example 788, (3S,7S,10R,13R)-13-benzyl-7-isobutyl-N-(3-methoxyphenethyl)-6,9,10-trimethyl-1,5,8,11-tetraoxo-1,2,3,4,5,6,7,8,9,10,11,12,13,14-tetradecahydroimidazo[1′,2′:1,6]pyrido[2,3-p][1]oxa[4,7,10,14]tetraazacycloheptadecine-3-carboxamide] | – | – | – | – | EC50 [3]: 549 nM; Emax [4]: 344%
15 | COc1cccc(CCNC(=O)[C@@H]2CC(=O)N(C)[C@@H](CC3CCC3)C(=O)N(CCC3CCCCC3)CC(=O)N[C@H](Cc3ccccc3)COc3ccc4ccccc4c3C(=O)N2)c1 (racemic) [Example 302, (3RS,7S,13R)-13-benzyl-7-(cyclobutylmethyl)-9-(2-cyclohexylethyl)-N-(3-methoxyphenethyl)-6-methyl-1,5,8,11-tetraoxo-1,2,3,4,5,6,7,8,9,10,11,12,13,14-tetradecahydronaphtho[1,2-p][1]oxa[4,7,10,14]tetraazacycloheptadecine-3-carboxamide] | 106 nM | 193% | – | – | –
